Source: US8790665B2, “Serum protein-based detection of random sequence polymer compositions” (Ares Trading SA, priority 2009, dated 2014)
Entries after “also recorded” stand apart in the source; their conditions may differ.

Assays:
[1] = YEAK in the serum of mice dosed IV or SC, detected by anti-YEAK ELISA; format: in vivo; conditions: FIG. 4
[2] = system: CCL22; assay: Acute release of CCL22 (MDC) in serum or plasma after YEAK administration in mice; format: in vivo; conditions: FIG. 5
[3] = system: RAW264.7; assay: Bioassay: CCL22 release by monocyte cell line RAW264.7; format: cell-based; conditions: RAW264.7 cells exposed to copolymer; FIGS. 10, 15
Experimental: Following synthesis of RSP compositions of different lengths, for example by solid phase synthesis or by solution phase synthesis, the individual lots or batches made by the same manufacturing process, and individual batches of mixtures manufactured by different processes are tested and compared for variation using bioassays such as the release of CCL22 by the monocyte cell line RAW264.7, by ex vivo proliferation assays, and by measuring the binding of serum proteins to peptides in the RSP composition, it is possible to determine subsets of peptides or even individual peptides that are present in any given process or lot. Processes and lots of RSP compositions will be compared to determine whether the same subsets of peptides and/or types of peptides are consistently represented across the different processes and lots.

[4] = system: Ig fraction of rabbit polyserum; assay: ELISA with Ig fraction of rabbit polyserum; format: binding; conditions: FIG. 13
[5] = system: serum proteins; assay: Identification of serum proteins bound to PI-2301 or Cop-1 (ELISA / CNBr-Sepharose capture, LC-MS/MS); format: binding, human; conditions: for serum proteins identified as bound: LC-MS/MS of tryptic digest, samples from Example 1 or 2; for binding to the serum proteins listed in Table C: normal human serum, direct ELISA
Text: As a non-limiting example of the above described identification, PI-2301 or Cop-1 may be used in a direct ELISA assay (see Materials and Methods) to identify serum proteins that bind to the RSP composition comprising YFAK or YEAK peptides. […] It has been observed that YEAK and YFAK peptides have different binding specificities; conversely, serum proteins can be said to bind YEAK and YFAK peptides with different specificities. Tables D and E list serum proteins which associate with HDL and LDL, respectively. Any serum proteins may bind to the RSP composition described herein by varying affinities and selectivities.
An uncoated ELISA plate was blocked with PBS/0.1% Tween 20 for 2 hours at room temperature. PI-2301 or Cop-1 samples were serially diluted in PBS/5% normal human serum and added to the blocked and washed wells of the ELISA plate. The PI-2301 or Cop-1 in normal human serum was bound to the plate and unbound PI-2301 or Cop-1 was removed by washing the plate with PBS/0.05% Tween 20. Protein-A-purified anti-rabbit anti-PI-2301 or anti-rabbit anti-Cop-1, diluted to a suitable concentration based on the titer, was added for 1 hr at RT. After another wash step to remove the unbound rabbit anti-2301 or rabbit anti-Cop-1 antibodies, a secondary antibody, a goat anti-rabbit IgG-HRP (horse radish peroxidase conjugated antibody to rabbit IgG) was added to the well. After washing away any unbound secondary antibody, substrate for HRP was added to the wells and incubated for 15 minutes, which yielded a blue color that turns yellow when stop solution is added, the intensity of which color correlates with the amount of total PI-2301 or Cop-1 in the well. The optical density was measured at 450 nm with a ELISA plate reader and a titer curve was generated for each set of the serum samples spiked with PI-2301 and Cop-1, respectively. The limit of serum PI-2301 or serum Cop-1 detection is defined as the concentration which results in a A450 nm absorption which is 3 times above background. […]
Immobilized RSP compositions were prepared by reacting the peptides with CNBr-activated Sepharose®, a pre-activated large pore chromatography medium used for immobilizing ligands (proteins, peptides, nucleic acids) containing primary amines using the cyanogens bromide method. […] After pH neutralization, the absorbance at 280 nm of the eluted fractions was read to identify fractions containing the ligands. […]
Samples containing PI-2301 binding proteins or Cop-1 binding proteins were obtained by the method of Example 1 or Example 2. These samples were then enzymatically digested and analyzed by liquid chromatography tandem mass spectrometry (LC-MS/MS) for the purpose of identify the proteins which bind PI-2301 or Cop-1. […]

[6] = several hours after subcutaneous administration; various species, including man; cited from earlier work
[7] = biological target: HLA-DR2 (DRB1*1501) (Homo sapiens, UniProt P01903+P01911); conditions: peptide-specific manner; cited from earlier work
[8] = biological target: HLA-DR1 (DRB1*0101) (Homo sapiens, UniProt P01903+P01911, A100R/D57E/F55L/F60I/F76Y/I96L/L162R/M171V/P40L/Q125E/R42F/V115G/Y59C); conditions: peptide-specific manner; cited from earlier work
[9] = biological target: HLA-DR4 (DRB1*0401) (Homo sapiens, UniProt P01903+P01911, A100K/A169T/F76Y/I96L/K127E/L162R/M171V/N62H/P40V/Q125Y/R42H/S133A/S149N/S66Y/V115G/V209L/W38E); conditions: peptide-specific manner; cited from earlier work
[10] = Serum concentration / exposure of PI-2301 compared with Cop-1; conditions: in vivo
Text: Certain RSP compositions persist much longer in the serum and other biological fluids than other mixtures. For example, a preparation of YFAK, PI-2301, is found at 10 times the serum concentration in comparison to Cop-1 administered at the same initial weight-by-volume concentration (US App. Pub. 2009-0275496). In some instances, the administered peptides are sequestered by or bound to some in vivo component in situ, the result of which is longer half-life in that environment, with or without enhancement in bioavailability. In certain embodiment, the environment is blood plasma or lymph. In an alternative embodiment, the environment is spinal or cerebral fluid. In yet other embodiments, the environment is any tissue or organ locale to which peptides from RSP compositions are delivered.
Without wishing to be bound by theory, mechanistically, binding of peptides within RSP compositions, (e.g. PI-2301 and Cop-1) to the serum proteins such as lipoproteins found associated with HDL and LDL might facilitate their capture by monocytes through receptors such as SR-BI or ABCA1. This binding may induce activation of monocytes and their differentiation into anti-inflammatory cells. PI-2301 and Cop-1 differ in binding to serum proteins (see FIG. 3). […]

[11] = system: preclinical models of multiple sclerosis and Crohn's disease; assay: Efficacy in preclinical models of multiple sclerosis and Crohn's disease; format: in vivo
Text: Without wishing to be bound by theory, mechanistically, binding of peptides within RSP compositions, (e.g. PI-2301 and Cop-1) to the serum proteins such as lipoproteins found associated with HDL and LDL might facilitate their capture by monocytes through receptors such as SR-BI or ABCA1. This binding may induce activation of monocytes and their differentiation into anti-inflammatory cells. PI-2301 and Cop-1 differ in binding to serum proteins (see FIG. 3). One reason for the difference is that Cop-1 and generic variants of glatiramer acetates are made by solution phase peptide synthesis, thus significant variations in composition may be observed from lot to lot. In contrast, PI-2301 is manufactured by solid phase synthesis. […] Thus, the great majority of the PI-2301 52-mer peptides in the mixture is likely to be functional. Cop-1 has a much broader molecular weight distribution, making it likely that some species of the mixture, such as small peptide species, in the mixture are ineffective.

[12] = administered at the same initial weight-by-volume concentration; cited from earlier work

| Substance | maximum serum concentration ([1]; mice dosed IV with 4 mg/kg or SC with 21 mg/kg, route for this value not stated) [ng/mL] | time of maximum serum concentration ([1]; post dosing, mice IV 4 mg/kg or SC 21 mg/kg) | relation between SC dose and observed maximum CCL22 plasma concentration [2] | CCL22 release [3] | recognition by Ig fraction of rabbit polyserum [4] | serum proteins identified as bound [5] | binding to the serum proteins listed in Table C [5] | detection in serum [6] | binding affinity to purified HLA-DR2 (DRB1*1501) [7] | binding affinity to purified HLA-DR1 (DRB1*0101) [8] | binding affinity to purified HLA-DR4 (DRB1*0401) [9] | serum exposure compared with Cop-1 [10] | efficacy (potency) compared with Cop-1 [11] | serum concentration in comparison to Cop-1 [12] [times] |
| --- | --- | --- | --- | --- | --- | --- | --- | --- | --- | --- | --- | --- | --- | --- |
| glatiramer acetate [Cop-1] | 1800 | around 15 min | linear correlation | released CCL22 in a concentration dependent manner | interacts strongly | several lipoproteins from the HDL and LDL complexes; also recorded: complement proteins such as C3 and C4A | experimentally shown to bind | can be detected | binds with high affinity | binds with high affinity | binds with high affinity | – | – | – |
| plovamer [PI-2301] | – | – | – | – | – | several lipoproteins from the HDL and LDL complexes | experimentally shown to bind | can be detected | – | – | – | greater serum exposure | more potent than Cop-1 | 10 |
